This is an account of results in patent US5610174A, “Use of α1A -selective adrenoceptor agonists for the treatment of urinary incontinence” (priority 1995, dated 1997).

Molecules are shown by their SMILES. Like-named read-outs stand apart in the source and are kept apart here. Bounds are passed on as bounds.

One assay has as its target T1, human 5-HT1E receptor (Homo sapiens, UniProt P28566).
T1 construct: expressed in transfected cells; host or cells: LM(tk-) clonal cell line, designated 5-HT1E-7, ATCC CRL 10913 (cell lysates)
The assay is described as follows: Radioligand binding at human 5-HT1E. The conditions noted are these: [3H]serotonin; for Ki: read-out: pKi 5-HT1E (converted). On the procedure: (§1) Human Serotonin Receptors
(§2) 5-HT1Dα, 5-HT1Dβ, 5-HT1E, 5-HT1F, and 5-HT7 Receptors: The cell lysates of LM(tk-) clonal cell line stably transfected with the genes encoding each of these 5-HT receptor-subtypes were prepared as described above. The cell line for the 5-HT1Dαreceptor, designated as Ltk-8-30-84, was deposited on Apr. 17, 1990, and accorded ATCC Accession No. CRL 10421. The cell for the 5-HT1Dβ receptor, designated as Ltk-11, was deposited on Apr. 17, 1990, and accorded ATCC Accession No. CRL 10422. The cell line for the 5-HT1E receptor, designated 5-HT1E -7, was deposited on Nov. 6, 1991, and accorded ATCC Accession No. CRL 10913. The cell line for the 5-HT1F receptor, designated L-5-HT1F, was deposited on Dec. 27, 1991, and accorded ATCC Accession No. CRL 10957. The cell line for the 5-HT7 receptor, designated as L-5-HT-4B, was deposited on Oct. 20, 1992, and accorded ATCC Accession No. CRL 11166. These preparations were suspended in 50 mM Tris-HCl buffer (pH 7.4 at 37° C.) containing 10 mM MgCl2, 0.2 mM EDTA, 10 μM pargyline, and 0.1% ascorbate. […] Nonspecific binding was determined in the presence of 10 μM serotonin. The bound radioligand was separated by filtration through GF/B filters using a cell harvester.

The target of the next assay is T2, human 5-HT1F receptor (Homo sapiens, UniProt P30939).
T2 construct: expressed in transfected cells; host or cells: LM(tk-) clonal cell line, designated L-5-HT1F, ATCC CRL 10957 (cell lysates)
T2 sequence (P30939 1-366): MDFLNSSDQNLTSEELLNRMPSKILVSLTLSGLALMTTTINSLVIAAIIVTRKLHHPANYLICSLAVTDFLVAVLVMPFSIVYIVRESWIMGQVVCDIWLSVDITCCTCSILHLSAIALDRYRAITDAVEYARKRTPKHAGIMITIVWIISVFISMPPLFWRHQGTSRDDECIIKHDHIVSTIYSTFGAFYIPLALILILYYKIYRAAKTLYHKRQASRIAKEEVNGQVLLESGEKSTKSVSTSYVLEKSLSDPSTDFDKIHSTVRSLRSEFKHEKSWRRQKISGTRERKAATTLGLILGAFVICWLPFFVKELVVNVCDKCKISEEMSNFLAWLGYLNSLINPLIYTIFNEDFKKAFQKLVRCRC
The assay is described as follows: Radioligand binding at human 5-HT1F. On the procedure:
as §1
as §2, with “17, 1990, and accorded ATCC Accession No. CRL 10421.” left out, “17, 1990, and accorded ATCC Accession No. CRL 10422.” left out, “6, 1991, and accorded ATCC Accession No. CRL 10913.” left out, “27, 1991, and accorded ATCC Accession No. CRL 10957.” left out, “20, 1992, and accorded ATCC Accession No. CRL 11166.” left out

The next assay addresses T3, human 5-HT7 receptor (Homo sapiens, UniProt P34969).
T3 construct: expressed in transfected cells; host or cells: LM(tk-) clonal cell line, designated L-5-HT-4B, ATCC CRL 11166 (cell lysates)
Description: Radioligand binding at human 5-HT7. On the procedure:
as §1
as §2, with “17, 1990, and accorded ATCC Accession No. CRL 10421.” left out, “17, 1990, and accorded ATCC Accession No. CRL 10422.” left out, “6, 1991, and accorded ATCC Accession No. CRL 10913.” left out, “27, 1991, and accorded ATCC Accession No. CRL 10957.” left out, “20, 1992, and accorded ATCC Accession No. CRL 11166.” left out

Assay [1] concerns the target T4, human α2A adrenoceptor (Homo sapiens, UniProt P08913).
T4 construct: expressed in transfected cells; host or cells: LM(tk-)
T4 sequence (P08913 1-465): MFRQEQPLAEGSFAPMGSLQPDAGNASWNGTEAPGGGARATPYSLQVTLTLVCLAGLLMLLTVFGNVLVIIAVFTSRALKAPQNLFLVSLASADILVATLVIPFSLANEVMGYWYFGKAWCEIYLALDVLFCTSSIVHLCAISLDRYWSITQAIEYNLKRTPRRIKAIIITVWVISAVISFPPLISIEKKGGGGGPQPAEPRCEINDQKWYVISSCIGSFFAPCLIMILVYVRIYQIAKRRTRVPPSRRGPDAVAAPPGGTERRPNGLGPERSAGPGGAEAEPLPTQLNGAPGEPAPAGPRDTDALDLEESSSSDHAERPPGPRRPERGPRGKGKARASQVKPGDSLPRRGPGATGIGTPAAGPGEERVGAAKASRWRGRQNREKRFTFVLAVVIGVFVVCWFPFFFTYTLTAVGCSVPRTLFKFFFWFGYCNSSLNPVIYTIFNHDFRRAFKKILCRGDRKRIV
The assay is described as follows: Inhibition of forskolin stimulated adenylyl cyclase, α2A. The conditions noted are these: for Emax: read-out: intrinsic activity (i.a.) α2A. It is filed as cell-based. How it is done: α2 -Adrenoceptor-Mediated Inhibition of Forskolin Stimulated Adenylyl Cyclase
The agonist activity of test compounds was assayed by measuring their ability to inhibit adenylyl cyclase in cells stably transfected with each of the three cloned human α2 -adrenoceptors. LM(tk-) cells expressing the α2A - or the α2C -, as well as Y1 cells expressing the α2B -adrenoceptor were used. […] The formation of cyclic AMP was measured in cultures incubated with DMEM containing 1 mM theophylline. […] The data from concentration-response curves was fitted to a four-parameter logistic equation, by non-linear regression analysis, to determine the pEC50 and intrinsic activity.

Assay [2] has as its target T4, human α2A adrenoceptor. The assay is described as follows: Radioligand binding ([3H]rauwolscine) at cloned human α2A. On the procedure: To determine the affinity of compounds at the α2 receptors, LM(tk-) cell lines stably transfected with the genes encoding the α2A, α2B, and α2C receptors were used. Cell lysates were prepared as described above (see Radioligand Binding Assays), and suspended in 25 mM glycylglycine buffer (pH 7.6 at room temperature). Equilibrium competition binding assays were performed using [^3 H] rauwolscine (0.5 nM), and nonspecific binding was determined by incubation with 10 μM phentolamine. The bound radioligand was separated by filtration through GF/B filters using a cell harvester.

Setting [3] is: Table 3, agonists, read-out: pKi α2A (converted).

T1 sequence (P28566 whole entry): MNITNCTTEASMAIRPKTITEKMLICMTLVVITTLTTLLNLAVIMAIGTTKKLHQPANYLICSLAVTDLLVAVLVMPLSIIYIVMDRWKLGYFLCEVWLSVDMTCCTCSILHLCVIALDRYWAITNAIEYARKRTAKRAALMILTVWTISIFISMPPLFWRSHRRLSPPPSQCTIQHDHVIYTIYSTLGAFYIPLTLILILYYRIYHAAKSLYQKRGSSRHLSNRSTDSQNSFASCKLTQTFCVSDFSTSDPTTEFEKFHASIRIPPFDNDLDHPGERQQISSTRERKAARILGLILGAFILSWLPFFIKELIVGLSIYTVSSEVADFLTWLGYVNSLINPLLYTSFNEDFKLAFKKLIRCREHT
T3 sequence (P34969 1-445 isoform P34969-2): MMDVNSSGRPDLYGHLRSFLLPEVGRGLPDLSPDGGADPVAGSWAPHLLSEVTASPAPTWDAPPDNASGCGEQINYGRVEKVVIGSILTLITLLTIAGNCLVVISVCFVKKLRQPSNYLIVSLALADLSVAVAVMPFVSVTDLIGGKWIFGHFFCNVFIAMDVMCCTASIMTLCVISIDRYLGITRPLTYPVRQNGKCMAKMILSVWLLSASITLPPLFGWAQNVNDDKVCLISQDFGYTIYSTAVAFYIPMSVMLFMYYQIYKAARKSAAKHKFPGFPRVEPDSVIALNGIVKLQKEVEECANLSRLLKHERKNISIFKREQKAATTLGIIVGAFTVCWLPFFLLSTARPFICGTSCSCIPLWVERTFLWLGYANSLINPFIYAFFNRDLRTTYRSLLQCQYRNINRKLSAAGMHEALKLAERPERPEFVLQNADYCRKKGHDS

In the case of `CS(=O)(=O)Nc1c(O)ccc2c1CCCC2C1=NCCN1` (racemic) [Compound A-61603, (±)-N-[5-(4,5-Dihydro-1H-imidazol-2-yl)-2-hydroxy-5,6,7,8-tetra-hydronaphthalen-1-yl]methanesulfonamide], the Ki on human 5-HT1E receptor was 5010 nM; at human 5-HT1F receptor ([3H]serotonin, read-out: pKi 5-HT1F (converted)), 5010 nM; at human 5-HT7 receptor ([3H]serotonin, read-out: pKi 5-HT7 (converted)), 5010 nM.

Turning to `COc1ccc(OC)c(C(O)CN)c1` (racemic) [ST-1059, (±)-2-Amino-1-(2, 5 dimethoxyphenyl) ethanol], at human α2A adrenoceptor [1], the EC50 was 2510 nM and the Emax came to 20%. Further, the Ki at human α2A adrenoceptor [2] (setting [3]) is 2000 nM.

Regarding `COc1ccc(SC)c2c1C[C@@H]1[C@@H](C2)OCCN1C` (relative stereo) [SDZ NVI-085, (±)-trans-4-Methyl-6-methoxy-9-thiomethoxy-3,4,4a, 5,10,10a-hexahydro-2H-naphtho[2,3-b][1,4]oxazine], the Ki on human 5-HT1E receptor is 2000 nM; on human 5-HT1F receptor, 100 nM; on human α2A adrenoceptor [2], 50.1 nM; on human 5-HT7 receptor it was 100 nM. On human α2A adrenoceptor [1] (agonist, inhibition of forskolin stimulated adenylyl cyclase, read-out: pEC50 α2A (converted)), the EC50 was greater than 100000 nM. The Emax at human α2A adrenoceptor [1] came out at 0%.

Regarding `CN[C@@H](C)[C@H](O)c1ccccc1` [(-)-ephedrine], at human α2A adrenoceptor [1], the EC50 was 251 nM and the Emax worked out at 30%. Further, the Ki at human α2A adrenoceptor [2] (setting [3]) is 794 nM.

On to `C[C@H](N)[C@H](O)c1ccccc1` [(-)-norephedrine], for which, at human α2A adrenoceptor [1], the EC50 was 7.94 nM and the Emax is 50%. Besides, the Ki at human α2A adrenoceptor [2] (setting [3]) is 501 nM.

`CNCCc1ccc(O)c(NS(C)(=O)=O)c1` [SK&F 102652]: at human 5-HT1E receptor, the “pKi 5-HT1E” value is 5.3. Moreover, the “pEC50 α2A” value on human α2A adrenoceptor [1] (agonist, inhibition of forskolin stimulated adenylyl cyclase) is less than 4.0. For the same compound, on human α2A adrenoceptor [1], the Emax was found to be 0%. Further, the “pKi 5-HT1F” value at human 5-HT1F receptor ([3H]serotonin) worked out at 5.3. In addition, the “pKi α2A” value on human α2A adrenoceptor [2] (Table 3, agonists) came out at 6.4. Also, the “pKi 5-HT7” value at human 5-HT7 receptor ([3H]serotonin) was determined as 5.3.
